Test results as given in patent US20220356163A1, “SMALL MOLECULE INHIBITORS OF Id PROTEINS” (MEMORIAL SLOAN KETTERING CANCER CENTER, priority 2019, published 2022).

Experiments:
ID1-E47 = target: T1, ID1-E47 (Homo sapiens, UniProt P41134); experiment: Immunoprecipitation of endogenous ID1 and E47 in HCT116 cells; assay type: cell-based; conditions: 60 μM, one hour
T1 construct: host or cells: HCT116
Procedure: Immunoprecipitation. Cells were lysed in NP40 lysis buffer (50 mM Tris-HCl, pH 7.5, 150 mM NaCl, 1 mM EDTA, 1% NP40, 1.5 mM Na3VO4, 50 mM sodium fluoride, 10 mM sodium pyrophosphate, 10 mM P-glycerolphosphate and EDTA free protease inhibitor cocktail (Roche)) or RIPA buffer (50 mM Tris-HCl, pH 7.5, 150 mM NaCl, 1 mM EDTA, 1% NP40, 0.5% Sodium Deoxycholate, 0.1% Sodium dodecyl sulfate, 1.5 mM Na3VO4, 50 mM sodium fluoride, 10 mM sodium pyrophosphate, 10 mM P-glycerolphosphate and EDTA free protease inhibitor cocktail (Roche)). Lysates were cleared by centrifuge at 15,000 rpm for 15 minutes at 4° C. For immunoprecipitation, cell lysates were incubated with primary antibody (FLAG M2 affinity gel, Sigma, F2426; ID1 (C-20), Santa Cruz, sc-488; E2A (N-649), Santa Cruz, sc-763) and protein G/A beads (Santa Cruz, sc-2003) at 4° C. overnight. Beads were washed with lysis buffer four times and eluted in 2×SDS sample buffer. Protein samples were separated by SDS-PAGE and transferred to a polyvinylidene fluoride (PVDF) membrane. Membranes were blocked in TBS containing 5% non-fat milk and 0.1% Tween20, and probed with primary antibodies. […]

Aqueous solubility = assay type: physicochemical
Id3 = target: T2, Id3 (Homo sapiens, UniProt Q02535); experiment: Knockdown of Id3 in TFK1 cell cultures; assay type: cell-based; conditions: TFK1, FIG. 22
T2 construct: endogenous in cells; host or cells: TFK1
Source text: Following the methods described herein (see, e.g., Examples 12-13), AGX-A and AGX51 were compared for their ability to mediate Id knockdown in cell cultures. FIG. 21 illustrates side-by-side comparative effects of AGX51 and AGX-A for knockdown of Id1 in TFK1 cell cultures, and FIG. 22 illustrates side-by-side comparative effects of AGX51 and AGX-A for knockdown of Id3 in TFK1 cell cultures.

PDX RomeP_PHCH_X_0008a = experiment: Murine PDX model of cholangiocarcinoma, Round 1 (AGX-A in DMSO); assay type: in vivo, mouse
Procedure: A first round of the study (“Round 1”) was planned as indicated in the Round 1 Study Protocol blow, utilizing gemcitabine in saline and AGX-A in DMSO for administration. • Mice: NSG females, 6-8 weeks old • […], serially transplanted sc with matrigel • Treatment Groups (at least 6 animals/group): treatments started when tumors reached 100 mm^3 (“Day 0” for each animal) • Group 1. Saline, i.p. once a week (“QW”) for 3-4 weeks (“×3-4 weeks”) • Group 2. Gemcitabine 25 mg/kg i.p. QW×3-4 weeks • Group 3. AGX-A 10 mg/kg i.p. once a day for 5 consecutive days (“QD×5”)×3-4 weeks • Group 4. Gemcitabine 25 mg/kg […] 10 mg/kg i.p. QD×5×3-4 weeks Tumor volumes, weights, and clinical signs were monitored a minimum of twice per week for each animal in each group throughout the study. In the Round 1 study, it was observed that animal weight in Groups 1 and 2 was essentially unchanged for the duration of the study. […] Because of this, treatment in Groups 3 and 4 was halted after Day 9 while tumor volumes, weights, and clinical signs continued to be monitored a minimum of twice per week for each subject in each group. Subsequently, the animals in Groups 3 and 4 stopped loosing weight and instead started regaining weight. Meanwhile, treatment in Groups 1 and 2 continued as planned. Due to the alterations in the planned study, Round 1 was concluded at Day 20.

T1 sequence (P41134 whole entry): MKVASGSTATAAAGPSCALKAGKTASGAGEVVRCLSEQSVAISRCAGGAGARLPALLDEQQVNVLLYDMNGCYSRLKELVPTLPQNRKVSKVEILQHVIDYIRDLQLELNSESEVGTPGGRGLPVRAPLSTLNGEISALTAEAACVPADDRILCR
T2 sequence (Q02535 whole entry): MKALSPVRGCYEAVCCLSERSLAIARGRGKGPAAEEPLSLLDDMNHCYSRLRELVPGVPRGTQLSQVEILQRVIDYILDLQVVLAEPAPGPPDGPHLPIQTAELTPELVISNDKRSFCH

Row | SMILES | co-precipitated ID1/E47 proteins (ID1-E47) | water solubility (Aqueous solubility) | Id3 knockdown potency vs AGX51 (Id3) | tumor volume (PDX RomeP_PHCH_X_0008a; AGX-A 10 mg/kg i.p. QD×5 in DMSO, treatment discontinued at 9 days, vs gemcitabine 25 mg/kg QW) | animal weight (PDX RomeP_PHCH_X_0008a; AGX-A in DMSO, Groups 3 and 4)
1 | CCC(=O)N(CCC(c1ccc2c(c1)OCO2)c1ccccc1OC)Cc1ccccc1 (racemic) [AGX51, N-(3-(benzo[d][1,3]dioxol-5-yl)-3-(2-methoxyphenyl)propyl)-N-benzylpropionamide] | markedly reduced the levels of the co-precipitated proteins | water insoluble |  |  | 
2 | COc1ccccc1C(CCNCc1ccccc1)c1ccc(OC(C)C)cc1 (centres unmarked) [AGX-A, N-benzyl-3-(4-isopropoxyphenyl)-3-(2-methoxyphenyl)propan-1-anine] |  |  | superior anti-Id1 and anti-Id3 potency compared to AGX51 | performs better than the SOC drug gemcitabine | weight loss was observed
